{"source": "patent US20210171576A1", "about": "“METHODS FOR TREATING CANCER WITH ACYLDEPSIPEPTIDE ANALOGS” (priority 2018, published 2021)", "key": {"[1]": {"target": "T1, HsCIpP (Homo sapiens, UniProt Q16740, P57S)", "T1 construct": "2x(His6-thrombin)-SUMO (N, cleaved yes); made in house; host or cells: E. coli (SG1146 stated for HsClpP; 'a similar protocol' for HsClpX)", "T1 sequence (Q16740 57-277 P57S)": "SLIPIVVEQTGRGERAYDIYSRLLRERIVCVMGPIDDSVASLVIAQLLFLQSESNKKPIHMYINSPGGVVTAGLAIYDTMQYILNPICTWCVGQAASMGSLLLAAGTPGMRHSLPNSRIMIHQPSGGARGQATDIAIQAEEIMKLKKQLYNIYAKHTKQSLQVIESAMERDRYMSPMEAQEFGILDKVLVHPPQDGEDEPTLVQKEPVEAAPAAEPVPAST", "test": "Peptidase activity assay (Ac-WLA-AMC cleavage) with ADEP", "assay_type": "biochemical", "conditions": "6 μM HsCIpP, 100 μM Ac-WLA-AMC", "experimental": "The peptidase activity of purified, untagged HsCIpP was assessed by monitoring the degradation of peptidyl substrates labelled with a C-terminal 7-amido-4-methylcoumarin (AMC) fluorophore. […] To identify a suitable peptidyl substrate, commercially available AMC-labelled peptides were purchased and tested for degradation by HsCIpP. These include N-acetyl-Trp-Leu-Ala-AMC (Ac-WLA-AMC) (R&D Systems) that was also previously used by Csizmadia et (Csizmadia et al., 2016), benzyloxycarbonyl-Arg-Arg-AMC (Z-RR-AMC) (Sigma-Aldrich), N-acetyl-Leu-Glu-His-Asp-AMC […] (Sigma-Aldrich), N-acetyl-Val-Glu-Thr-Asp-AMC (Ac-VETD-AMC) (Sigma-Aldrich), and benzyloxycarbonyl-Leu-Leu-Leu-AMC (Z-LLL-AMC) (Sigma-Aldrich). Suc-LY-AMC (MP Biomedicals) was also tested as a negative control. All stock solutions of the AMC-labelled peptides were prepared by dissolving the lyophilized peptides in DMSO at 90 mM or a lower concentration recommended by the manufacturer. […] Degradation of the peptidyl substrates and subsequent release of the free AMC moiety was monitored by fluorescence with λex=360 nm and λem=440 nm using the EnSpire 2300 Multilabel Reader (Perkin-Elmer) set to perform a reading every 30 s with 20 flashes. A total of 240 readings were collected for each of three independent replicates prepared for each peptidyl substrate. […]\nInitial degradation rates data were analyzed using the Hill model. […]"}, "[2]": {"target": "T1, HsCIpP", "test": "Protease activity assay (casein-FITC degradation) with ADEP, independent of HsCIpX", "assay_type": "biochemical", "conditions": "3 μM HsCIpP, 10 μM casein-FITC, no HsCIpX; read-out: K0.5 (microscopic apparent dissociation constant), protease activity", "experimental": "The protease activity of purified HsCIpP was assessed by monitoring the degradation of bovine milk casein labelled with fluorescein isothiocyanate (casein-FITC) (Sigma-Aldrich) in the presence of ADEP and/or purified HsCIpX. All reactions were carried out in 25 mM HEPES, pH 7.5, 35 mM KCl, 25 mM MgCl2, 0.03% Tween-20, 10% glycerol, and 1 mM DTT, supplemented with 16 mM creatine phosphate and 300 μM ATP. HsCIpP was used at 3 μM (final monomeric concentration) and casein-FITC was added at the final concentration of 10 μM. 13 U of creatine phosphokinase (Sigma-Aldrich) was also added for ATP regeneration. DMSO was present at 1% (v:v) final concentration in the experiments that involve the use of ADEP analogs. All reactions were carried out with 150 μL of the reaction mix per well in a 96-well black flat-bottom plate at 37° C. Degradation of casein-FITC and subsequent release of the free FITC moiety was monitored by fluorescence with λex=494 nm and λem=518 nm using the EnSpire 2300 Multilabel Reader set to perform a reading every 40 s with 20 flashes. A total of 100 readings were collected in each experiment. […]\nThe effect of ADEP in activating HsCIpP was assessed via the degradation of casein-FITC by HsCIpP independent of HsCIpX. […] Initial rates data were collected and analyzed using the Hill equation above to determine Vmax, h and K0.5 for each ADEP analog. […]"}, "[3]": {"tested_on": "HeLa (regular) cells", "test": "Cytotoxicity, SRB staining"}, "[4]": {"tested_on": "HEK293 T-REx+CLPP-FLAG cells", "test": "Cytotoxicity, SRB staining, with or without Dox"}}, "note": "Where a SMILES comes first, the peptide text is derived from it. Bridges are numbered along the chain shown (N, C = ends). [ ]: non-standard residue; d: D form. The star is where a group is joined. Phe(3,5-F2) = N[C@@H](Cc1cc(F)cc(F)c1)C(=O)O; Heptenoyl(2E) = CCCC/C=C/C(=O)*; aThr = C[C@H](O)[C@H](N)C(=O)O; Pip = O=C(O)[C@@H]1CCCCN1"}
{"smiles": "CCCC/C=C/C(=O)N[C@@H](Cc1cc(F)cc(F)c1)C(=O)N[C@@H]1C(=O)N2CCC[C@H]2C(=O)N2CCCC[C@H]2C(=O)N[C@@H](C)C(=O)N2CCC[C@H]2C(=O)O[C@H]1C", "note": "[ADEP-41] ({Heptenoyl(2E)}-[Phe(3,5-F2)][aThr]P[Pip]AP; ester 2-C)", "values": [{"measurement": "Hill coefficient (h), peptidase activity", "setting": "[1]", "result": 1.5}, {"measurement": "Kd", "setting": "[2]", "result": 0.12, "unit": "µM"}, {"measurement": "IC50 compared across cell lines", "setting": "[3]", "result": "similar"}, {"measurement": "change in IC50 relative to WT", "setting": "[4]; 0.4 μg/mL Dox, HsCIpP overexpression", "result": "significant decrease in IC50"}, {"measurement": "sensitivity relative to WT", "setting": "[4]; without Dox", "result": "equally sensitive"}]}
